The results in this text go back to US20080058345A1, “Combination Therapy with Mecamylamine for the Treatment of Mood Disorders” (priority 2004, published 2008).

The series deals with individuals with major depression who are partial responders (based on HAM-D scores) to selective serotonin reuptake inhibitors. As to the kind of experiment: 8-week clinical trial of mecamylamine plus SSRI antidepressant versus placebo plus antidepressant. It counts as in vivo, human. The method, then: The treatment of depressive symptoms in individuals with major depression who are partial responders (based on HAM-D scores) to selective serotonin reuptake inhibitors (e.g., fluoxetine, sertraline, citalopram, paroxetine, fluvoxamine) was assessed.
Subjects (n=13) were randomly assigned to one of two groups, designated mecamylamine or MEC and Placebo, respectively, for an 8-week clinical trial. Individuals in the MEC group received mecamylamine plus an antidepressant and those in the placebo group received placebo plus an antidepressant Eleven subjects (n=6 randomized to MEC, n=5 to placebo) have completed this 8-week clinical trial and results are presented for those individuals. Two subjects are currently enrolled in the protocol. No clinical or demographic differences have been found between subjects randomized to MEC versus Placebo (Table). […] These preliminary results support our primary hypothesis that central nAChR antagonism augments SSRI-treated refractory major depression.

In the case of `CNC1(C)C2CCC(C2)C1(C)C` (stereo not shown) [MEC, Bicyclo(2.2.1)heptan-2-amine, N,2,3,3-tetramethyl-], where the note is “8-week trial, MEC plus antidepressant versus placebo plus antidepressant”, the “difference between MEC and Placebo groups on any adverse events” value is “no significant differences”. For the setting “8-week trial, MEC plus antidepressant, placebo 1/5, p=0.06”, the “adverse event: report of decreased libido (subjects reporting)” value is 4/5. In addition, for the setting “8-week trial, MEC plus antidepressant, placebo 3/5, p=0.11”, the “adverse event: constipation (subjects reporting)” value is reported as 5/6. The “subjects classified as responders, as assessed by a 50% reduction in HAM-D scores” value (end of 8-week trial, MEC plus antidepressant, n=6 completers, placebo 0/5, p=0.02) is given as “Four out of six”.
